Data published in ChEMBL document CHEMBL1909046, “DrugMatrix in vitro pharmacology data”.

What was measured:
Adenosine receptor A3 = biological target: T1, Adenosine receptor A3 (Homo sapiens, UniProt P0DMS8); format: cell membranes, CHO-K1, Membrane; details: for Ki: read-out: Ki;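 on all read-outs here: radioligand binding assay with AB-MECA serving as the labeled ligand; in other assays of this panel Not Active means under 50% inhibition at 10 µM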
T1 sequence (P0DMS8 whole entry): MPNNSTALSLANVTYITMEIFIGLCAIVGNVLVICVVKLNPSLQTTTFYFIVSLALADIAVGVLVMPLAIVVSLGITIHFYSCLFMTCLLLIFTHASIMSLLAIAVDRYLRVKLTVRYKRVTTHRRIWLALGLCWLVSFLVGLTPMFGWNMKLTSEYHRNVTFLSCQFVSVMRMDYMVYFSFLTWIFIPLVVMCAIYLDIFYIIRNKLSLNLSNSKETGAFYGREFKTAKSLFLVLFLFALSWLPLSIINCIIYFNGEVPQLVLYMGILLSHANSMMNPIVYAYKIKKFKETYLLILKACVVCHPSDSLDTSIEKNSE

Insulin receptor = Insulin receptor (Rattus norvegicus, UniProt P15127); format: cell membranes, Wistar, Liver, Membrane; further: in other assays of this panel Not Active means under 50% inhibition at 10 µM
[1] = biological target: T2, Alpha-1D adrenergic receptor (Homo sapiens, UniProt P25100); format: cell membranes, HEK293, Membrane; details: for Ki: read-out: Ki; on all read-outs here: in other assays of this panel Not Active means under 50% inhibition at 10 µM
T2 sequence (P25100 whole entry): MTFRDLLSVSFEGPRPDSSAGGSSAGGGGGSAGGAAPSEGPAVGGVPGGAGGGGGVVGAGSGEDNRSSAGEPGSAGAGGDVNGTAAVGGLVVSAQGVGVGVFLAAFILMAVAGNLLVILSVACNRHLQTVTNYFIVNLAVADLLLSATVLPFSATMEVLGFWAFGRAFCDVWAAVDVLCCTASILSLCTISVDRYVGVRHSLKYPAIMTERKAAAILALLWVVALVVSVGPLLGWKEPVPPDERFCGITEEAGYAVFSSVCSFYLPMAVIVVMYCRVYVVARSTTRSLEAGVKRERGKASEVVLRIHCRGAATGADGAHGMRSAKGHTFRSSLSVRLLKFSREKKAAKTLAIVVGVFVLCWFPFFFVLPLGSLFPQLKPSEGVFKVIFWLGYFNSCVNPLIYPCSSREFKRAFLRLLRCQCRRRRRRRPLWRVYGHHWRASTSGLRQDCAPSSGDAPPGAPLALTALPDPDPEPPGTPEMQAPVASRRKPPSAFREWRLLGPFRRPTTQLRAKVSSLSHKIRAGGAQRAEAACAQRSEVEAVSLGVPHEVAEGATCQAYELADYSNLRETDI

[2] = biological target: Receptor tyrosine-protein kinase erbB-2 (Homo sapiens, UniProt P04626); test: biochemical; format: cell-based, Insect cells;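 further: inhibition of HER2 kinase enzyme activity, measured with Poly(Glu:Tyr) as the phosphorylation substrate; in other assays of this panel Not Active means under 50% inhibition at 10 µM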
[3] = biological target: T3, Type-2 angiotensin II receptor (Homo sapiens, UniProt P50052); format: cell-based; details: cho-k1; further: in other assays of this panel Not Active means under 50% inhibition at 10 µM
T3 sequence (P50052 whole entry): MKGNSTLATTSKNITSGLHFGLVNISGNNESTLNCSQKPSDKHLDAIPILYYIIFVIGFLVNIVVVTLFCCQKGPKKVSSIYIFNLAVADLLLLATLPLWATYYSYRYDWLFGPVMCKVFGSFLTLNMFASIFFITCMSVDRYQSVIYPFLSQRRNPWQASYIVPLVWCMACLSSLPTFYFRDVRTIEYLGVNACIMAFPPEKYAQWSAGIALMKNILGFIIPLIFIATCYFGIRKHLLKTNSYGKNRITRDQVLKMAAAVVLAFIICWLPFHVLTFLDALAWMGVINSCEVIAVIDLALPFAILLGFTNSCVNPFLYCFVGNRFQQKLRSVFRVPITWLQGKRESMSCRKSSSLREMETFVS

[4] = biological target: Beta-2 adrenergic receptor (Homo sapiens, UniProt P07550); test: DRUGMATRIX: Adrenergic beta2 radioligand binding (ligand: [3H] CGP-12177); format: cell membranes, Membrane; details: cho; Not Active = under 50% inhibition at 10 µM
Chain of Beta-2 adrenergic receptor (P07550 whole entry): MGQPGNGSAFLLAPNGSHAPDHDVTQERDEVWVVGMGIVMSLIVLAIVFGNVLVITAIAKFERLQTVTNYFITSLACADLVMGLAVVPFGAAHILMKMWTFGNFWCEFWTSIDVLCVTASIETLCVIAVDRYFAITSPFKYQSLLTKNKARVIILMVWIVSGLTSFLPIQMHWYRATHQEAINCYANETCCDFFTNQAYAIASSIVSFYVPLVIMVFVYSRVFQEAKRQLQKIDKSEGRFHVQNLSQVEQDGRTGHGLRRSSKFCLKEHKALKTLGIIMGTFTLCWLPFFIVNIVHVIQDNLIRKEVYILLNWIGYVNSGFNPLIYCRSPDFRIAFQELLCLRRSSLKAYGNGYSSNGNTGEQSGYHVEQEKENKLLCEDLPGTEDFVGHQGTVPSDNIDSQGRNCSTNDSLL

Chain of Receptor tyrosine-protein kinase erbB-2 (P04626 whole entry): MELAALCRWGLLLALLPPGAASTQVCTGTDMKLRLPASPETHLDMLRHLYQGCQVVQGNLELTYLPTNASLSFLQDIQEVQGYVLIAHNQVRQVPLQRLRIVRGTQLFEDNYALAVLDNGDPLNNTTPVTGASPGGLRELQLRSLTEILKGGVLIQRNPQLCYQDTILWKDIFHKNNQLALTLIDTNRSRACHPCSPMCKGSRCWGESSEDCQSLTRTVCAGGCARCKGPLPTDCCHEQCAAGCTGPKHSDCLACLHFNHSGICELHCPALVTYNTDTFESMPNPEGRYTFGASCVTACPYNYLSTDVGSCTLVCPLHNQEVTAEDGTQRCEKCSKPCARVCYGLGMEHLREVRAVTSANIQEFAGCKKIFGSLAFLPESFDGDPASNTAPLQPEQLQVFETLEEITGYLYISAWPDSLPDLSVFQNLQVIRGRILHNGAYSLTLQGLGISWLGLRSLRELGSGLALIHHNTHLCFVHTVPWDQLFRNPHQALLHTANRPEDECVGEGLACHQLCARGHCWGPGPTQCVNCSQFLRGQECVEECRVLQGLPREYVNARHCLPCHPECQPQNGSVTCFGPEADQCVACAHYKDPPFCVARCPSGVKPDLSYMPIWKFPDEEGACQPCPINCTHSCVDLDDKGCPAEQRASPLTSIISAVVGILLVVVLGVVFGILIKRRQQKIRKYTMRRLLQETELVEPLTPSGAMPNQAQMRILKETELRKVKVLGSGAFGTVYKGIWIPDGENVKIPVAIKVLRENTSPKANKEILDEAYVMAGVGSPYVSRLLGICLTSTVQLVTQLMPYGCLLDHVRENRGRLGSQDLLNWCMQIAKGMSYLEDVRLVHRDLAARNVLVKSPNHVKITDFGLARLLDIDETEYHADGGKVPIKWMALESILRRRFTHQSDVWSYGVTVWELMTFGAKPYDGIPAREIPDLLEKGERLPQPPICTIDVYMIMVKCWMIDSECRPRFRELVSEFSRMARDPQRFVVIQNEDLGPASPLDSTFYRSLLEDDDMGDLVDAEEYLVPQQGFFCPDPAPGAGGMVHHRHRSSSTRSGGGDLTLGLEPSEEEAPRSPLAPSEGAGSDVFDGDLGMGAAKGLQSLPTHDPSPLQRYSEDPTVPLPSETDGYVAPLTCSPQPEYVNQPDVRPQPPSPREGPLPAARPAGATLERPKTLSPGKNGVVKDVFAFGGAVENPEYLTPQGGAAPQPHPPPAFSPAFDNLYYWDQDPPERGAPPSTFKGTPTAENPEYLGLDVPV
Chain of Insulin receptor (P15127 27-759 limits assumed): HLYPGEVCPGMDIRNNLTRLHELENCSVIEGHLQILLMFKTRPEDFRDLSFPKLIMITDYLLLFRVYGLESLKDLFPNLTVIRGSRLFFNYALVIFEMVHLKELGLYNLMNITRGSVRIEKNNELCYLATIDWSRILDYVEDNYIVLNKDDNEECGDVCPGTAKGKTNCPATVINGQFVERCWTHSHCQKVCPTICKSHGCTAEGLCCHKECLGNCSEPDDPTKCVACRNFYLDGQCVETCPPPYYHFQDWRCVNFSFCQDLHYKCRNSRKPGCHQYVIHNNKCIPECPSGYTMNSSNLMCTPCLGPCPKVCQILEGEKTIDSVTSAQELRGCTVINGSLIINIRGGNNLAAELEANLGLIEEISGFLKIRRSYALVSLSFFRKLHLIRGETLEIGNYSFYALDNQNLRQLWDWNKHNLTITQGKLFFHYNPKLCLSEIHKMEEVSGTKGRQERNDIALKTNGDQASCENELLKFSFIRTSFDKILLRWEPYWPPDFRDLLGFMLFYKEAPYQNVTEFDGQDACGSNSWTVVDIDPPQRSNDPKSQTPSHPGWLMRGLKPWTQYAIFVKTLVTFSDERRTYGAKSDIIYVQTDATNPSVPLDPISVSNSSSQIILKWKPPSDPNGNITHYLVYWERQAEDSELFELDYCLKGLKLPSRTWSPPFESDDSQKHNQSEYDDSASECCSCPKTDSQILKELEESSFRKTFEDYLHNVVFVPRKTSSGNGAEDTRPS
Chain of Insulin receptor (P15127 764-1383 limits assumed): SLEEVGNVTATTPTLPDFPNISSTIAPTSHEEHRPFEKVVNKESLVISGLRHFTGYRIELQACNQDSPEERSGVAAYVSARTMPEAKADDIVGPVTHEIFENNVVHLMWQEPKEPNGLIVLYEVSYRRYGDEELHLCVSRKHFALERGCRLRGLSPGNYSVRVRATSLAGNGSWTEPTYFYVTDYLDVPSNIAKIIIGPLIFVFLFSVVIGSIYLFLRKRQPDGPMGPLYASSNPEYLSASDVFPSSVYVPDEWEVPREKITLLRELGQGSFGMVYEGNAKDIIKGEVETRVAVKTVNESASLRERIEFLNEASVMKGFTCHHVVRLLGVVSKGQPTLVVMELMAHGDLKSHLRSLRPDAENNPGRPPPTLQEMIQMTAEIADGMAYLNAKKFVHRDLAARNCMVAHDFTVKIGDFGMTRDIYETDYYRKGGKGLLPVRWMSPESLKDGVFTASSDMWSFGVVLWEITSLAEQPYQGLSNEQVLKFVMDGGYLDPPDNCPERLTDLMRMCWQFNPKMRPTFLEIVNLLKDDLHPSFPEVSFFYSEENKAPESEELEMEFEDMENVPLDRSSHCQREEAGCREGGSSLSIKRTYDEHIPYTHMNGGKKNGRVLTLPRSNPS

Structure (SMILES)	IC50 (Adenosine receptor A3; cho-k1)	IC50 (Insulin receptor)	IC50 ([1]; hek293)	IC50 ([2]; insect cells)	IC50 [3]	IC50 [4]	IC50 ([2]; read-out: IC50)	IC50 (Adenosine receptor A3; read-out: IC50)	Ki (Adenosine receptor A3)	IC50 ([1]; read-out: IC50)	Ki [1]
CC(C)(C)NC(=O)[C@@H]1C[C@@H]2CCCC[C@@H]2CN1C[C@@H](O)[C@H](Cc1ccccc1)NC(=O)[C@H](CC(N)=O)NC(=O)c1ccc2ccccc2n1	Not Active	Not Active	Not Active	Not Active	Not Active	Not Active	–	–	–	–	–
CC(=O)[C@@]1(O)CC[C@H]2[C@@H]3C[C@H](C)C4=CC(=O)CC[C@]4(C)[C@H]3CC[C@@]21C	Not Active	Not Active	Not Active	Not Active	Not Active	Not Active	–	–	–	–	–
N[C@@H](Cc1ccc(N(CCCl)CCCl)cc1)C(=O)O	Not Active	Not Active	Not Active	Not Active	Not Active	Not Active	–	–	–	–	–
CCCCc1oc2ccccc2c1C(=O)c1cc(I)c(OCCN(CC)CC)c(I)c1 [AMIODARONE]	–	Not Active	Not Active	–	Not Active	Not Active	9.15 µM	–	–	–	–
OCCN(CCO)c1nc(N2CCCCC2)c2nc(N(CCO)CCO)nc(N3CCCCC3)c2n1 [DIPYRIDAMOLE]	Not Active	Not Active	Not Active	Not Active	Not Active	Not Active	–	–	–	–	–
Cc1oncc1C(=O)Nc1ccc(C(F)(F)F)cc1 [LEFLUNOMIDE]	Not Active	Not Active	Not Active	Not Active	Not Active	Not Active	–	–	–	–	–
c1ccc([C@H]2CN3CCSC3=N2)cc1 [LEVAMISOLE]	Not Active	Not Active	Not Active	Not Active	Not Active	Not Active	–	–	–	–	–
N[C@@H](Cc1ccc(O)c(O)c1)C(=O)O [LEVODOPA]	Not Active	Not Active	Not Active	Not Active	Not Active	Not Active	–	–	–	–	–
N[C@@H](Cc1cc(I)c(Oc2ccc(O)c(I)c2)c(I)c1)C(=O)O [LIOTHYRONINE]	Not Active	Not Active	Not Active	Not Active	Not Active	Not Active	–	–	–	–	–
O=NN(CCCl)C(=O)NC1CCCCC1 [LOMUSTINE]	Not Active	Not Active	Not Active	Not Active	Not Active	Not Active	–	–	–	–	–
CCOC(=O)N1CCC(=C2c3ccc(Cl)cc3CCc3cccnc32)CC1 [LORATADINE]	Not Active	Not Active	Not Active	Not Active	Not Active	Not Active	–	–	–	–	–
Cn1ccnc1S [METHIMAZOLE]	Not Active	Not Active	Not Active	Not Active	Not Active	Not Active	–	–	–	–	–
CC[C@@H](CO)NC(=O)[C@@H]1C=C2c3cccc4[nH]cc(c34)C[C@H]2N(C)C1 [METHYLERGONOVINE]	Not Active	Not Active	Not Active	Not Active	Not Active	Not Active	–	–	–	–	–
COc1nc(C)nc(Cl)c1NC1=NCCN1 [MOXONIDINE]	Not Active	Not Active	Not Active	Not Active	Not Active	Not Active	–	–	–	–	–
COc1c(C)c2c(c(O)c1C/C=C(\C)CCC(=O)O)C(=O)OC2 [MYCOPHENOLIC ACID]	Not Active	Not Active	Not Active	Not Active	Not Active	Not Active	–	–	–	–	–
O=c1ncn2nc(Sc3ccc(F)cc3F)ccc2c1-c1c(Cl)cccc1Cl [NEFLAMAPIMOD]	–	Not Active	Not Active	Not Active	Not Active	Not Active	–	8.55 µM	4.83 µM	–	–
CN1CCN(CCCN2c3ccccc3Sc3ccc(Cl)cc32)CC1 [PROCHLORPERAZINE]	Not Active	Not Active	–	Not Active	Not Active	Not Active	–	–	–	0.034 µM	0.016 µM
CO[C@H]1/C=C/O[C@@]2(C)Oc3c(C)c(O)c4c(O)c(c(/C=N/N5CCN(C)CC5)c(O)c4c3C2=O)NC(=O)/C(C)=C\C=C\[C@H](C)[C@H](O)[C@@H](C)[C@@H](O)[C@@H](C)[C@H](OC(C)=O)[C@@H]1C [RIFAMPIN]	Not Active	Not Active	Not Active	Not Active	Not Active	Not Active	–	–	–	–	–
Nc1nc2ccc(OC(F)(F)F)cc2s1 [RILUZOLE]	Not Active	Not Active	Not Active	Not Active	Not Active	Not Active	–	–	–	–	–
Cc1nc2n(c(=O)c1CCN1CCC(c3noc4cc(F)ccc34)CC1)CCCC2 [RISPERIDONE]	Not Active	Not Active	–	Not Active	Not Active	Not Active	–	–	–	–	–
C=CCC1(C(C)CCC)C(=O)NC(=O)NC1=O (stereo not given) [SECOBARBITAL]	Not Active	Not Active	Not Active	Not Active	Not Active	Not Active	–	–	–	–	–
C[C@@H]1CN(c2c(F)c(N)c3c(=O)c(C(=O)O)cn(C4CC4)c3c2F)C[C@H](C)N1 [SPARFLOXACIN]	Not Active	Not Active	Not Active	Not Active	Not Active	Not Active	–	–	–	–	–
Cc1noc(NS(=O)(=O)c2ccc(N)cc2)c1C [SULFISOXAZOLE]	Not Active	Not Active	Not Active	Not Active	Not Active	Not Active	–	–	–	–	–
CSc1ccc(/C=C2/C(C)=C(CC(=O)O)c3cc(F)ccc32)cc1 [SULINDAC SULFIDE]	–	Not Active	Not Active	Not Active	Not Active	Not Active	–	7.23 µM	4.09 µM	–	–
Nc1c2c(nc3ccccc13)CCCC2 [TACRINE]	Not Active	Not Active	Not Active	Not Active	Not Active	Not Active	–	–	–	–	–
CC/C(=C(\c1ccccc1)c1ccc(OCCN(C)C)cc1)c1ccccc1 [TAMOXIFEN]	–	Not Active	–	–	Not Active	Not Active	2.95 µM	3.7 µM	2.09 µM	4.98 µM	2.45 µM
CC(C)N1CCN(c2ccc(OCC3COC(Cn4cncn4)(c4ccc(Cl)cc4Cl)O3)cc2)CC1 (stereo not given) [TERCONAZOLE]	Not Active	Not Active	–	Not Active	Not Active	Not Active	–	–	–	14.4 µM	7.07 µM
Nc1nc2nc[nH]c2c(=S)[nH]1 [THIOGUANINE]	–	Not Active	Not Active	Not Active	Not Active	Not Active	–	21.7 µM	12.3 µM	–	–
Cc1cccc(N(C)C(=S)Oc2ccc3ccccc3c2)c1 [TOLNAFTATE]	Not Active	Not Active	Not Active	Not Active	Not Active	Not Active	–	–	–	–	–
NC[C@H]1CC[C@H](C(=O)O)CC1 [TRANEXAMIC ACID]	Not Active	Not Active	Not Active	Not Active	Not Active	Not Active	–	–	–	–	–
